What is called melting point is the temperature, or range, at which the solid turns liquid. Turning to `Cc1ccc(C2=C(c3ccc(S(C)(=O)=O)cc3)OC(C)(C)C2=O)cc1` [Example 1, 2,2-Dimethyl-4-(4methylphenyl)-5-{4-(methylsulfonyl)phenyl}-3(2H)-furanone], the melting point was 167 to 168 °C. The figure for `CC1(C)OC(c2ccc(S(C)(=O)=O)cc2)=C(c2ccc(F)c(Cl)c2)C1=O` [Example 2, 4-(3-Chloro-4-fluorophenyl)-2,2-dimethyl-5-{4-(methylsulfonyl)phenyl}-3(2H)-furanone] is 162 to 164 °C. The figure for `CC1(C)OC(c2ccc(S(C)(=O)=O)cc2)=C(c2ccc(OC(F)(F)F)cc2)C1=O` [Example 7, 2,2-Dimethyl-5-{4-(methylsulfonyl)phenyl}-4-{4-(trifluoromethoxy)phenyl}-3(2H)-furanone] is 118 to 120 °C; for `CC1(C)OC(c2ccc(S(C)(=O)=O)cc2)=C(c2ccc3c(c2)OCO3)C1=O` [Example 8, 2,2-Dimethyl-4-(3,4-methylenedioxyphenyl)-5-{4-(methylsulfonyl)phenyl}-3(2H)-furanone] it is 178 to 179 °C. For `COc1c(C)cc(C2=C(c3ccc(S(C)(=O)=O)cc3)OC(C)(C)C2=O)cc1C` [Example 12, 2,2-Dimethyl-4-(3,5-dimethyl-4-methoxyphenyl)-5-{4-(methylsulfonyl)phenyl}-3(2H)-furanone] the value was 130 to 131 °C. The molecule `CC1(C)OC(c2ccc(S(C)(=O)=O)cc2)=C(c2cccc3ccccc23)C1=O` [Example 13, 2,2-Dimethyl-5-{4-(methylsulfonyl)phenyl}-4-(1-naphthyl)-3(2H)-furanone] displayed a melting point of 194 to 195 °C. For `CC1(C)OC(c2ccc(S(C)(=O)=O)cc2)=C(c2cc3ccccc3s2)C1=O` [Example 15, 4-(2-Benzo[b]thienyl)-2,2-dimethyl-5-{4-(methylsulfonyl)phenyl}-3(2H)-furanone] the value was 204 to 206 °C; for `CC1(C)OC(c2ccc(S(C)(=O)=O)cc2)=C(c2cc3ccccc3o2)C1=O` [Example 16, 4-(2-Benzo[b]furanyl)-2,2-dimethyl-5-{4-(methylsulfonyl)phenyl}-3(2H)-furanone], 140 to 141 °C; for `CC1(C)OC(c2ccc(S(C)(=O)=O)cc2)=C(c2cccnc2)C1=O` [Example 19, 2,2-Dimethyl-5-{4-(methylsulfonyl)phenyl}-4-(3-pyridyl)-3(2H)-furanone], 164 to 166 °C.

Molecule `CC1(C)OC(c2ccc(S(N)(=O)=O)cc2)=C(c2ccc3c(c2)OCO3)C1=O` [Example 27, 5-{4-(Aminosulfonyl)phenyl{-2,2-dimethyl-4-}3,4-(methylenedioxy)phenyl}-3(2H)-furanone] displayed a melting point of 178 to 179 °C. For `CC1(C)OC(c2ccc(S(N)(=O)=O)cc2)=C(c2cc3ccccc3s2)C1=O` [Example 28] the value was 120 to 121 °C. In the case of `CC1(C)OC(c2ccc(S(N)(=O)=O)cc2)=C(c2cccc(-c3ccccc3)c2)C1=O` [Example 29, 5-{4-(Aminosulfonyl)phenyl}-4-(3-biphenyl)-2,2-dimethyl-3(2H)-furanone], the melting point is 160 to 161 °C. The figure for `CC1(C)OC(c2ccc(S(N)(=O)=O)cc2)=C(c2cc3ccccc3o2)C1=O` [Example 30] is 143 to 145 °C; for `CCC1(C)OC(c2ccc(S(N)(=O)=O)cc2)=C(c2ccc(OC)c(F)c2)C1=O` (stereo not drawn) [Example 46, 5-{4-(Aminosulfonyl)phenyl}-2-ethyl-4-(3-fluoro-4-methoxyphenyl)-2-methyl-3(2H)-furanone] it is 113 to 114 °C. The figure for `CCC1(CC)OC(c2ccc(S(C)(=O)=O)cc2)=C(c2ccccc2)C1=O` [Example 47, 2,2-Diethyl-5-{4-(methylsulfonyl)phenyl}-4-phenyl-3(2H)-furanone] is 139 to 140 °C; for `CC(=O)c1ccc(C2=C(c3ccc(S(C)(=O)=O)cc3)OC3(CCCC3)C2=O)cc1` [Example 55, 3-(4-Acetylphenyl)-2-{4-(methylsulfonyl)phenyl}-1-oxa-spiro[4,4]non-2-en-4-one] it is 126 to 130 °C; for `CSc1ccc(C2=C(c3ccc(S(C)(=O)=O)cc3)OC(C)(C)C2=O)cc1` [Example 72, 2,2-dimethyl-5-{4-(methylsulfonyl)phenyl}-4-{4-(methylthio)-phenyl}-3(2H)-furanone] it is 137 to 141 °C. For `CCSc1ccc(C2=C(c3ccc(S(C)(=O)=O)cc3)OC(C)(C)C2=O)cc1` [Example 88, 2,2-dimethyl-4-{4-(ethylthio)phenyl}-5-{4-(methylsulfonyl)-phenyl}-3(2H)-furanone] the value was 103 to 105 °C. For the molecule `CC1(C)OC(c2ccc(S(C)(=O)=O)cc2)=C(c2ccc(S(C)(=O)=O)cc2)C1=O` [Example 109, 2,2-Dimethyl-4,5-di{4-(methylsulfonyl)phenyl}-3(2H)-furanone], the melting point was in the range of 245 to 257 °C. For `CCS(=O)(=O)c1ccc(C2=C(c3ccc(S(C)(=O)=O)cc3)OC(C)(C)C2=O)cc1` [Example 110, 2,2-Dimethyl-4-{4-(ethylsulfonyl)phenyl}-5-{4-(methylsulfonyl)phenyl}-3(2H)-furanone] the value was 198 to 203 °C. For `CSc1ccc(C2=C(c3cccc(F)c3)C(=O)C(C)(C)O2)cc1` [Example 166, 2,2-Dimethyl-4-(3-fluorophenyl)-5-{4-(methylthio)phenyl}-3(2H)-furanone] the value was 106 °C; for `CSc1ccc(C2=C(c3cc(F)cc(F)c3)C(=O)C(C)(C)O2)cc1` [Example 173, 4-(3,5-difluorophenyl)-2,2-dimethyl-5-{4-(methylthio)-phenyl}-3(2H)-furanone], 122 to 123 °C; for `CCCC(=O)NS(=O)(=O)c1ccc(C2=C(c3cccc(F)c3)C(=O)C(C)(C)O2)cc1` [Example 183, 5-[4-{(n-Butyrylamino)sulfonyl}phenyl]-2,2-dimethyl-4-(3-fluorophenyl)-3(2H)-furanone], 188 to 189 °C.

In the case of `CNS(=O)(=O)c1ccc(C2=C(c3cccc(F)c3)C(=O)C(C)(C)O2)cc1` [Example 184, 2,2-Dimethyl-5-{4-(N-methylaminosulfonyl)phenyl}-4-(3-fluorophenyl)-3(2H)-furanone], the melting point was 176 to 177 °C. The figure for `Cc1cccc(C2=C(c3ccc(S(C)(=O)=O)cc3)OC3(CCCCC3)C2=O)c1` [Example 260, 3-(3-Methylphenyl)-2-{4-(methylsulfonyl)phenyl}-1-oxa-spiro[4,5]dec-2-en-4-one] is 154 to 155 °C. The figure for `CC1(C)OC(c2ccc(S(C)(=O)=O)c(F)c2)=C(c2ccc([N+](=O)[O-])cc2)C1=O` [Example 287, 2,2-dimethyl-4-(4-nitrophenyl)-5-{3-fluoro-4-(methylsulfonyl)-phenyl}-3(2H)-furanone] is 173 to 174 °C; for `C[S+]([O-])c1ccc(C2=C(c3ccccc3)C(=O)C(C)(C)O2)c(F)c1` (stereo not drawn) [Example 327, 2,2-Dimethyl-5-{2-fluoro-4-(methylsulfinyl)phenyl}-4-phenyl-3(2H)-furanone] it is 149 to 150 °C. For `C[S+]([O-])c1ccc(C2=C(c3ccccc3)C(=O)C(C)(C)O2)cc1Cl` (stereo not drawn) [Example 363, 5-{3-Chloro-4-(methylsulfinyl)phenyl}-2,2-dimethyl-4-phenyl-3(2H)-furanone] the value was 120 to 121 °C; for `Cc1cc(C2=C(c3cccc(F)c3)C(=O)C(C)(C)O2)ccc1S(N)(=O)=O` [Example 380, 5-{4-(Aminosulfonyl)-3-methylphenyl}-2,2-dimethyl-4-(3-fluorophenyl)-3(2H)-furanone], 81 to 82 °C. `C[S+]([O-])c1ccc(C2=C(c3ccccc3)C(=O)C(C)(C)O2)c(Cl)c1` (stereo not drawn) [Example 391, 5-{2-Chloro-4-(methylsulfinyl)phenyl}-2,2-dimethyl-4-phenyl-3(2H)-furanone] gave a melting point of 135 to 136 °C.

These data come from patent US6492416B1, “4,5-diaryl-3(2H)-furanone derivatives as cyclooxygenase-2 inhibitors” (Pacific Corporation, priority 1999, dated 2002).
